Experimental data: patent US20150126368A1, “METHOD OF PROVIDING PLANT WITH STRESS RESISTANCE” (Nippon Soda Co., Ltd., priority 2012, published 2015)
Like-named read-outs stand apart in the source and are kept apart here.

Tests used:
Format in all cases: in vivo
Soybean (breed: Enrei) = test: Evaluation test for relief effects of flood injury on soybean; settings: flood from 2 days, raw weight 11 days after spray
Procedure: Soybean (breed: Enrei, 2 reprications) grown up to the two leaf stage in a greenhouse was prepared.
A water dispersible granule of 30% ascorbyl palmitate and pyraclostrobin adjusted to 40% with N,N-dimethylformamide were diluted with tap water to a predetermined concentration, and the diluted solution was sprayed in a sufficient amount. They were subjected to flood conditions up to immediately below the cotyledon from 2 days after the spray treatment, and the raw weights of an above ground part and a root part of soybean were each measured at the elapsed time of 11 days after the spray treatment. From this, injury relief percentages were computed by the following formula.
Flood injury relief percentage=((raw weight of each treatment region)−(raw weight of untreated region))/(raw weight of untreated region)×100

[1] = test system: Cherry tomato (breed; Regina); test: Evaluation test for relief effects of high temperature injury on cherry tomato; settings: 30% water dispersible granule at plant foot at intervals of seven days
Procedure: Cherry tomato (breed; Regina, 5 reprications) grown in a greenhouse was prepared.
On August 24 at the first inflorescence anthesis, 0.15% of 4-chlorophenoxyacetic acid was sprayed, and a water dispersible granule of 30% ascorbyl palmitate in an amount described in Table 4 was further applied at the plant foot at intervals of seven days. All fruits were harvested on September 28, and the color of a fruit (classified into red and green), the weight of a fruit, and the number of fruits were investigated to calculate the weight per fruit and the percentage of red fruits (%).

[2] = test system: Cucumber nursery plants (breed: Sagamihanjiro); test: Evaluation test for relief effects of low temperature injury on cucumber; settings: spray, 2 days 25° C., then 9 days 10° C. daylight/7° C. dark, vs solvent only
Procedure: N,N-dimethylformamide based solutions were prepared according to the formulations shown in Tables 5 to give chemical solutions for the tests.
Cucumber nursery plants (breed: Sagamihanjiro) grown up to the 1.5 leaf stage in a greenhouse was prepared.
(§1) The above chemical solution was sprayed to the stem and leaf parts of the above cucumber nursery plants in a sufficient amount, and then air dried. They were allowed to grow at 25° C. for 2 days under conditions of 16 hours under a daylight condition and 8 hours under a dark condition. Then, they were allowed to grow for 9 days under conditions of 16 hours under a daylight condition at 10° C. and 8 hours under a dark condition at 7° C.
(§2) Disorders were evaluated by 11 levels of disorder indices from 0 (no disorders) to 10 (withering to death).
Low temperature injury relief percentages as compared with a region treated with solvent DMF only (Chemical solution 3) were computed by the following formula.
Low temperature injury relief percentage=((disorder index of region treated with solvent only)−(disorder index of each treated region))/(disorder index of region treated with solvent only)×100

[3] = test system: Cucumber (breed: Sagamihanjirohushinari); test: Evaluation test for relief effects of salt injury on cucumber; settings: 0.1% aqueous sodium chloride from 2 days, raw weight 11 days after spray
Procedure: Cucumber (breed: Sagamihanjirohushinari, 2 reprications) hydroponically grown up to the two leaf stage in a greenhouse was prepared.
A water dispersible granule of 30% ascorbic acid palmitate and pyraclostrobin adjusted to 40% with N,N-dimethylformamide were diluted with tap water to a predetermined concentration, and the diluted solution was sprayed over the whole nursery plants in a sufficient amount. After air dried, they were cultivated with normal irrigation in a greenhouse. Then, the irrigation conditions were changed to 0.1% aqueous sodium chloride solution in 2 cm depth from 2 days after the spraying, and cultivated up to 11 days after the spray treatment. Then the raw weights of an aerial part and a root part were each measured. From this, injury relief percentages were computed by the following formula.
Salt injury relief percentage=((raw weight of each treatment region)−(raw weight of untreated region))/(raw weight of untreated region)×100

Tomato (breed: Momotaro) = test: Evaluation test for relief effects of high temperature injury on tomato; settings: sprayed on stem and leaf, 2 days 30° C., then 6 days 40° C. daylight/30° C. dark, vs solvent only
Procedure: N,N-dimethylformamide based solutions were prepared according to the formulations shown in Table 3 to give chemical solutions for the tests.
Tomato (breed: Momotaro) grown up to the 2.5 leaf stage in a greenhouse was prepared.
as §1, with “tomato” for “cucumber”, “30°” for “25°”, “6” for “9”, “40°” for “10°”, “30°” for “7°”
as §2
High temperature injury relief percentages as compared with a region treated with solvent DMF only (Chemical solution 3) were computed by the following formula.
High temperature injury relief percentage=((disorder index of region treated with solvent only)−(disorder index of each treatment region))/(disorder index of region treated with solvent only)×100

Pyricularia oryzae = settings: 11 days after inoculation
[4] = ascorbyl palmitate 1000 ppm spray
[5] = ascorbyl palmitate 800 ppm in DMF
[6] = ascorbyl palmitate 50 ppm spray on rice (Koshihikari) one day before inoculation
[7] = Pyraclostrobin 5 ppm spray on rice (Koshihikari) one day before inoculation

`CCCCCCCCCCCCCCCC(=O)OC[C@H](O)[C@H]1OC(=O)C(O)=C1O` [ascorbyl palmitate] was tested, and the “relief percents of flood injury in aerial part(%)” value (Soybean (breed: Enrei); [4]) was 2.8%, the “relief percents of flood injury in root(%)” value (Soybean (breed: Enrei); [4]) was 20.4% and the “color of fruit: Number of green fruits” value ([1]; dosage 0.1 g/stock) was 13. For the same molecule, the “color of fruit: Number of red fruits” value ([1]; dosage 0.1 g/stock) was 19, the “color of fruit: Percents of red fruits vs. no treatment region(%)” value ([1]; dosage 0.1 g/stock) was 141% and the “color of fruit: Percents of red fruits(%)” value ([1]; dosage 0.1 g/stock) was 59%. The “yield: Total number of fruits” value ([1]; dosage 0.1 g/stock) was 32, the “yield: Total weight of fruits” value ([1]; dosage 0.1 g/stock) was 304 g and the “yield: weight per fruit vs. no treatment region(%)” value ([1]; dosage 0.1 g/stock) was 138%. For the same molecule, the “yield: weight per fruit(g/fruit)” value ([1]; dosage 0.1 g/stock) was 9.5 g/fruit, the “color of fruit: Number of green fruits” value ([1]; dosage 0.5 g/stock) was 4 and the “color of fruit: Number of red fruits” value ([1]; dosage 0.5 g/stock) was 29. For the same molecule, the “color of fruit: Percents of red fruits vs. no treatment region(%)” value ([1]; dosage 0.5 g/stock) was 209%, the “color of fruit: Percents of red fruits(%)” value ([1]; dosage 0.5 g/stock) was 88% and the “yield: Total number of fruits” value ([1]; dosage 0.5 g/stock) was 33. The “yield: Total weight of fruits” value ([1]; dosage 0.5 g/stock) was 342 g, the “yield: weight per fruit vs. no treatment region(%)” value ([1]; dosage 0.5 g/stock) was 151% and the “yield: weight per fruit(g/fruit)” value ([1]; dosage 0.5 g/stock) was 10.4 g/fruit. The “relief percents of low-temperature injury(%)” value [2, 5] was 25%, the “relief percents of salt injury in aerial part(%)” value [3, 4] was 8.8% and the “relief percents of salt injury in root(%)” value [3, 4] was 16.0%. The “relief percents of high-temperature injury (%)” value (Tomato (breed: Momotaro); [5]) was 57%, the “Number of lesion spots” value (Pyricularia oryzae; [6]) was 30 and the “Preventive value(%)” value (Pyricularia oryzae; [6]) was 9%.
For `COC(=O)N(OC)c1ccccc1COc1ccn(-c2ccc(Cl)cc2)n1` [Pyraclostrobin, reference compound], the “relief percents of flood injury in aerial part(%)” value (Soybean (breed: Enrei); Pyraclostrobin 50 ppm spray) was 0.0%, the “relief percents of flood injury in root(%)” value (Soybean (breed: Enrei); Pyraclostrobin 50 ppm spray) was 3.2% and the “relief percents of low-temperature injury(%)” value ([2]; Pyraclostrobin 40 ppm in DMF) was 19%. For the same molecule, the “relief percents of salt injury in aerial part(%)” value ([3]; Pyraclostrobin 50 ppm spray) was 45.6%, the “relief percents of salt injury in root(%)” value ([3]; Pyraclostrobin 50 ppm spray) was 20.0% and the “relief percents of high-temperature injury (%)” value (Tomato (breed: Momotaro); Pyraclostrobin 40 ppm in DMF) was 35%. The “Number of lesion spots” value (Pyricularia oryzae; [7]) was 10 and the “Preventive value(%)” value (Pyricularia oryzae; [7]) was 70%.
